What was measured:
Proteus morg. 932 = test: MIC, test tube series dilution test, Proteus morg. 932; type: cell-based; conditions: 24 hours, 37°C
Psdm. aerug. Walter = test: MIC, test tube series dilution test, Psdm. aerug. Walter; type: cell-based, Pseudomonas aeruginosa; conditions: for MIC: Psdm. aerug. Walter, 24 hours, 37°C; for Activity against Psdm. aerug. Walter (minimum inhibitory concentration): 24 hours' incubation
Staph. aureus 133 = type: cell-based, Staphylococcus aureus; conditions: for MIC: Staph. aureus 133, 24 hours, 37°C; for Activity against Staph. aureus 133 (minimum inhibitory concentration): 24 hours' incubation
E. coli A 261 = test: MIC, test tube series dilution test, E. coli A 261; type: cell-based; conditions: 24 hours, 37°C
Klebsiella K 10 = test: MIC, test tube series dilution test, Klebsiella K 10; type: cell-based; conditions: 24 hours, 37°C
Klebsiella 63 = test: MIC, test tube series dilution test, Klebsiella 63; type: cell-based; conditions: for MIC: Klebsiella 63, 24 hours, 37°C; for Activity against Klebs. 63 (minimum inhibitory concentration): 24 hours' incubation
Psdm. aerug. F 41 = test: MIC, test tube series dilution test, Psdm. aerug. F 41; type: cell-based, Pseudomonas aeruginosa; conditions: for MIC: Psdm. aerug. F 41, 24 hours, 37°C; for Activity against Psdm. aerug. F 41 (minimum inhibitory concentration): 24 hours' incubation
E. coli 14 = type: cell-based; conditions: for MIC: E. coli 14, 24 hours, 37°C; for Activity against E. coli 14 (minimum inhibitory concentration): 24 hours' incubation
E. coli 183/58 = test: MIC, test tube series dilution test, E. coli 183/58; type: cell-based; conditions: 24 hours, 37°C
Proteus vulg. 1017 = type: cell-based, Proteus vulgaris; conditions: for Activity against Proteus vulg. 1017 (minimum inhibitory concentration): 24 hours' incubation; for MIC: Proteus 1017, 24 hours, 37°C
Enterococcus 9790 = test: MIC, test tube series dilution test, Enterococcus 9790; type: cell-based; conditions: 24 hours, 37°C
E. coli C 165 = test: MIC, test tube series dilution test, E. coli C 165; type: cell-based; conditions: 24 hours, 37°C
Staph. aureus 1756 = test: MIC, test tube series dilution test, Staph. aureus 1756; type: cell-based, Staphylococcus aureus; conditions: for MIC: Staph. aureus 1756, 24 hours, 37°C

SMILES	MIC (Proteus morg. 932) [U/ml]	MIC (Psdm. aerug. Walter)	MIC (Staph. aureus 133) [U/ml]	MIC (E. coli A 261)	MIC (Klebsiella K 10) [U/ml]	MIC (Psdm. aerug. F 41)	MIC (E. coli 14)	MIC (Enterococcus 9790)	further results
CC1(C)S[C@@H]2[C@H](NC(=O)[C@H](NC(=O)CNC(=O)c3ccc(N)cc3)c3ccccc3)C(=O)N2[C@H]1C(=O)O [Example 70]	> 256	> 256 U/ml	< 1	> 256 U/ml	–	–	–	–	–
CC1(C)S[C@@H]2[C@H](NC(=O)[C@H](NC(=O)c3ccccc3NC(=O)C3CC3)c3ccccc3)C(=O)N2[C@H]1C(=O)O [Example 49]	–	–	< 1	–	> 256	< 256 U/ml	–	–	MIC (Klebsiella 63): > 256 U/ml
CC1(C)S[C@@H]2[C@H](NC(=O)[C@H](NC(=O)CSc3ccc(NC=O)cc3)c3ccccc3)C(=O)N2[C@H]1C(=O)O [Example 59]	> 256	> 256 U/ml	< 1	> 256 U/ml	–	> 256 U/ml	~ 4 U/ml	–	–
CC1(C)S[C@@H]2[C@H](NC(=O)[C@H](NC(=O)c3ccc(NC(=O)c4ccc(C(F)(F)F)cc4)cc3)c3ccccc3)C(=O)N2[C@H]1C(=O)O [Example 23]	–	–	< 1	–	–	–	< 1 U/ml	–	MIC (E. coli 183/58): < 1 U/ml
CC1(C)S[C@@H]2[C@H](NC(=O)[C@H](NC(=O)c3ccc(NC=O)c(NC=O)c3)c3ccccc3)C(=O)N2[C@H]1C(=O)O [Example 74]	–	–	< 1	–	> 256	–	–	–	–
CC1(C)S[C@@H]2[C@H](NC(=O)[C@H](NC(=O)c3ccc(NC(=O)C4CCCC4)cc3)c3ccc(O)cc3)C(=O)N2[C@H]1C(=O)O [Example 81]	–	–	–	–	–	–	–	–	Activity against Staph. aureus 133 (minimum inhibitory concentration) (Staph. aureus 133): < 1 U/ml; Activity against E. coli 14 (minimum inhibitory concentration) (E. coli 14): 4-8 U/ml; Activity against Klebs. 63 (minimum inhibitory concentration) (Klebsiella 63): 128-256 U/ml; Activity against Psdm. aerug. F 41 (minimum inhibitory concentration) (Psdm. aerug. F 41): 32-64 U/ml; Activity against Proteus vulg. 1017 (minimum inhibitory concentration) (Proteus vulg. 1017): > 256 U/ml
COc1cc(C(=O)Nc2ccc(C=CC(=O)N[C@@H](C(=O)N[C@@H]3C(=O)N4[C@@H]3SC(C)(C)[C@@H]4C(=O)O)c3ccccc3)cc2)cc(OC)c1OC [Example 79, sodium D(-)-α-[4-(3,4,5-trimethoxybenzoylamino-cinnamoylamino)]-benzylpenicillin]	–	–	–	–	–	–	–	–	Activity against Staph. aureus 133 (minimum inhibitory concentration) (Staph. aureus 133): < 1 U/ml; Activity against E. coli 14 (minimum inhibitory concentration) (E. coli 14): 1-2 U/ml; Activity against Klebs. 63 (minimum inhibitory concentration) (Klebsiella 63): 32-64 U/ml; Activity against Psdm. aerug. F 41 (minimum inhibitory concentration) (Psdm. aerug. F 41): 8-16 U/ml; Activity against Proteus vulg. 1017 (minimum inhibitory concentration) (Proteus vulg. 1017): 128-256 U/ml
CNc1ccc(C(=O)N[C@@H](C(=O)N[C@@H]2C(=O)N3[C@@H]2SC(C)(C)[C@@H]3C(=O)O)c2ccccc2)cc1 [Example 43]	> 256	> 256 U/ml	< 1	> 256 U/ml	–	–	~ 16 U/ml	–	–
CC1(C)S[C@@H]2[C@H](NC(=O)[C@H](NC(=O)c3ccc(N)cc3)c3ccccc3)C(=O)N2[C@H]1C(=O)O [Example 34, sodium D(-)-α-(4-amino-benzoylamino)-benzylpenicillin]	> 256	–	< 1	> 256 U/ml	256	64 U/ml	~ 16 U/ml	~ 4 U/ml	MIC (Klebsiella 63): 128 U/ml; MIC (E. coli C 165): 32 U/ml; MIC (Staph. aureus 1756): 32 U/ml; MIC (Proteus vulg. 1017): 128 U/ml
Cc1cc(C)cc(C(=O)Nc2ccc(C(=O)N[C@@H](C(=O)N[C@@H]3C(=O)N4[C@@H]3SC(C)(C)[C@@H]4C(=O)O)c3ccccc3)cc2)c1 [Example 21]	–	–	< 1	~ 256 U/ml	–	~ 16 U/ml	< 1 U/ml	~ 4 U/ml	MIC (E. coli 183/58): ~ 1 U/ml
CC1(C)S[C@@H]2[C@H](NC(=O)[C@H](NC(=O)c3ccc(NC(=O)Nc4ccc(F)cc4)cc3)c3ccccc3)C(=O)N2[C@H]1C(=O)O [Example 46]	–	–	< 1	–	–	–	< 1 U/ml	~ 4 U/ml	MIC (E. coli C 165): ~ 4 U/ml
CC1(C)S[C@@H]2[C@H](NC(=O)[C@H](NC(=O)c3ccc(NC(=O)C4CCCC4)cc3O)c3ccccc3)C(=O)N2[C@H]1C(=O)O [Example 77, sodium D(-)-α-(4-cyclopentanecarbonylamino-2-hydroxybenzoylamino)benzylpenicillin]	–	–	–	–	–	–	–	–	Activity against Psdm. aerug. Walter (minimum inhibitory concentration) (Psdm. aerug. Walter): 8-16 U/ml; Activity against E. coli 14 (minimum inhibitory concentration) (E. coli 14): 2-4 U/ml; Activity against Klebs. 63 (minimum inhibitory concentration) (Klebsiella 63): 32-64 U/ml; Activity against Staph. aureus 1756 (minimum inhibitory concentration) (Staph. aureus 1756; 24 hours' incubation): 32-64 U/ml
CC1(C)S[C@@H]2[C@H](NC(=O)[C@H](NC(=O)c3ccc(NC(=O)c4cc(Cl)cc(Cl)c4)cc3)c3ccccc3)C(=O)N2[C@H]1C(=O)O [Example 20]	–	~ 4 U/ml	< 1	~ 256 U/ml	–	–	< 1 U/ml	~ 4 U/ml	MIC (Staph. aureus 1756): ~ 4 U/ml; MIC (Proteus vulg. 1017): ~ 4 U/ml
CC1(C)S[C@@H]2[C@H](NC(=O)[C@H](NC(=O)Cc3ccc(NC(=O)C4CCC4)cc3)c3ccccc3)C(=O)N2[C@H]1C(=O)O [Example 76, sodium D(-)-α-[(4-cyclobutanecarbonylaminophenyl)-acetamido]-benzylpenicillin]	> 256	> 256 U/ml	< 1	> 256 U/ml	–	> 256 U/ml	< 4 U/ml	~ 16 U/ml	–
CC1(C)S[C@@H]2[C@H](NC(=O)[C@H](NC(=O)c3ccccc3NC(=O)C3CCC3)c3ccccc3)C(=O)N2[C@H]1C(=O)O [Example 50]	–	–	< 1	–	> 256	–	–	–	–
CNC(=S)Nc1ccc(C(=O)N[C@@H](C(=O)N[C@@H]2C(=O)N3[C@@H]2SC(C)(C)[C@@H]3C(=O)O)c2ccccc2)cc1 [Example 47]	> 256	> 256 U/ml	< 1	> 256 U/ml	256	64 U/ml	16 U/ml	4 U/ml	MIC (Klebsiella 63): 128 U/ml; MIC (E. coli C 165): 32 U/ml; MIC (Staph. aureus 1756): 64 U/ml; MIC (Proteus vulg. 1017): 32 U/ml
CC1(C)S[C@@H]2[C@H](NC(=O)[C@H](NC(=O)c3cc(NC(=O)C4CC4)ccc3Cl)c3ccccc3)C(=O)N2[C@H]1C(=O)O [Example 53]	–	–	< 1	–	> 256	128-256 U/ml	32 U/ml	2-4 U/ml	MIC (E. coli 183/58): 128-256 U/ml; MIC (Klebsiella 63): 128-256 U/ml; MIC (E. coli C 165): 128-256 U/ml; MIC (Staph. aureus 1756): 32-64 U/ml; MIC (Proteus vulg. 1017): > 256 U/ml
CC1(C)S[C@@H]2[C@H](NC(=O)[C@H](NC(=O)c3ccc(NC(=O)C4(O)CC4)cc3)c3ccccc3)C(=O)N2[C@H]1C(=O)O [Example 2, sodium D(-)-α-(4-cyclopropanol-1-carbonyl-aminobenzoylamino)-benzylpenicillin]	> 256	> 256 U/ml	< 1	> 256 U/ml	–	–	–	–	–
CC(C)(CN=[N+]=[N-])C(=O)Nc1ccc(C(=O)N[C@@H](C(=O)N[C@@H]2C(=O)N3[C@@H]2SC(C)(C)[C@@H]3C(=O)O)c2ccccc2)cc1 [Example 39]	–	–	< 1	> 256 U/ml	–	–	–	–	MIC (Staph. aureus 1756): ~ 64 U/ml
COc1cc(C=CC(=O)Nc2ccc(C(=O)N[C@@H](C(=O)N[C@@H]3C(=O)N4[C@@H]3SC(C)(C)[C@@H]4C(=O)O)c3ccccc3)cc2)cc(OC)c1OC [Example 78, sodium D(-)-α-[4-(3,4,5-trimethoxycinnamoylamino-benzoylamino)]-benzylpenicillin]	–	–	–	–	–	–	–	–	Activity against Psdm. aerug. Walter (minimum inhibitory concentration) (Psdm. aerug. Walter): 32-64 U/ml; Activity against E. coli 14 (minimum inhibitory concentration) (E. coli 14): 2-4 U/ml; Activity against Klebs. 63 (minimum inhibitory concentration) (Klebsiella 63): 32-64 U/ml; Activity against Proteus vulg. 1017 (minimum inhibitory concentration) (Proteus vulg. 1017): 128-256 U/ml
COCC(=O)Nc1ccc(C(=O)N[C@@H](C(=O)N[C@@H]2C(=O)N3[C@@H]2SC(C)(C)[C@@H]3C(=O)O)c2ccccc2)cc1 [Example 42]	–	–	< 1	–	> 256	–	–	~ 4 U/ml	MIC (Proteus vulg. 1017): > 256 U/ml
CNC(=O)Nc1ccc(C(=O)N[C@@H](C(=O)N[C@@H]2C(=O)N3[C@@H]2SC(C)(C)[C@@H]3C(=O)O)c2ccccc2)cc1 [Example 44]	–	–	< 1	–	256	~ 64 U/ml	~ 8 U/ml	4 U/ml	MIC (Klebsiella 63): 128 U/ml; MIC (E. coli C 165): 16 U/ml; MIC (Staph. aureus 1756): 64 U/ml; MIC (Proteus vulg. 1017): > 256 U/ml
CC1(C)S[C@@H]2[C@H](NC(=O)[C@H](NC(=O)CNC(=O)c3ccc(NC(=O)C4CC4)cc3)c3ccccc3)C(=O)N2[C@H]1C(=O)O [Example 64]	> 256	–	–	> 256 U/ml	128	256 U/ml	–	8 U/ml	MIC (E. coli 183/58): 64 U/ml; MIC (Klebsiella 63): 64 U/ml; MIC (E. coli C 165): 32 U/ml; MIC (Staph. aureus 1756): 16 U/ml; MIC (Proteus vulg. 1017): 64 U/ml
CC1(C)S[C@@H]2[C@H](NC(=O)[C@H](NC(=O)CSc3ccc(NC(=O)C4CCC4)cc3)c3ccccc3)C(=O)N2[C@H]1C(=O)O [Example 61]	> 256	> 256 U/ml	< 1	> 256 U/ml	–	–	–	~ 16 U/ml	–

Source: patent US4001218A, “Penicillins” (Bayer Aktiengesellschaft, priority 1972, dated 1977)
